Test results reported in patent US20240277693A1, “A PHARMACEUTICAL PRODUCT CONTAINING TASQUINIMOD AND A METHOD FOR ASSESSING THE PURITY OF SAID PRODUCT” (ACTIVE BIOTECH AB, priority 2021, published 2024).

Key:
Type in all cases: physicochemical
[1] = Stability testing of capsules at 25° C./60% RH in water impermeable blister pack
Text: (§1) In some embodiments, the method disclosed herein comprises storing (keeping) a sample of the pharmaceutical product for a period of time, preferably under selected conditions of temperature and humidity. The amount (or concentration) of tasquinimod and of at least one of compounds I, II, III and IV in the sample may preferably be determined at the beginning or before the storage period and at the end of the storage period. The selected storage conditions may include a temperature in the range of, for example, 20° C. to 40° C., and a relative humidity in the surrounding atmosphere in the range of, for example, 30% to 75%; e.g. 25° C. and 60% RH, or 30° C. and 65% RH, or 35° C. and 70% RH, or 40° C. and 75% RH. The storage period may extend over a time period in the range of, for example, several weeks to several years. For example, the stability testing period (“storage period”) may be 2 weeks, 3 weeks, 1 month, 2 months, 3 months, 4 months, 5 months, 6 months, 9 months, 1 year, 18 months, 2 years, 3 years, 4 years or even 5 years or longer. A shorter storage period may be selected by use of higher storage temperature and/or higher relative humidity (RH). The total amount of a tasquinimod decomposition product in the sample at the end of the storage period may be determined by, for example, HPLC.
The batch of capsules manufactured in Example 19 was assessed by determining the amount of tasquinimod and the amount of each one of compounds I, II, III and IV in a sample of the capsules at the end of a 3-month stability testing, whereby the criterion for approving the batch was that the capsules of the sample, at the end of the 3-month stability testing, contain a total amount of compounds I-IV of not more than 5.0% w/w, relative to the amount of tasquinimod in the capsules. The stability testing consisted of keeping the capsules, in a water impermeable blister pack, at 25° C./60% RH. At the end of the stability testing, the capsules contained 0.06% w/w of compound I, less than 0.05% w/w of compound II, 0.10% of compound III and less than 0.05% w/w of compound IV, relative to the amount of tasquinimod (determined to be 0.246 mg/capsule), viz. in total less than 0.26% w/w of compounds I-IV relative to the amount of tasquinimod. Therefore, according to the selected criterion for approval, the batch of capsules was determined to be suitable for distribution.
(§2) The obtained batch of capsules was subjected to multiple assessments, viz. a first assessment comprising determining the amount of tasquinimod and the amount of compounds I, II, III and IV in a sample of the capsules directly after manufacturing, whereby the selected criterion for approving the batch for distribution was that the capsules of the sample, in a water impermeable blister pack, contain not more than in total 5% w/w of compounds I-IV relative to the amount of tasquinimod, followed by eight further, independent assessments, by determining the amount of tasquinimod and the amount of each one of compounds I, II, III and IV in a sample of the capsules at the end of a period of stability testing (by keeping the capsules, in a water impermeable blister pack, at 25° C./60% RH) of 3, 6, 9, 12, 18, 24, 36 and 48 months, respectively, whereby each time the criterion for approving the batch was that the capsules of the sample, at the end of each period of stability testing, contain a total amount of compounds I-IV of not more than 5.0% w/w, relative to the amount of tasquinimod in the capsules.

[2] = Assessment of capsules after manufacture: amount of tasquinimod and of decomposition products; conditions: 0 months (after manufacturing)
Text: as §1
The obtained batch of capsules was assessed by determining the amount of tasquinimod and the amount of compound III in a sample of the capsules. The selected criterion for approving the batch was that the capsules of the sample contain not more than 1.0% w/w of compound III relative to the amount of tasquinimod. […] Therefore, according to the selected criterion for approval, the batch of capsules was determined to be suitable for distribution.
The obtained batch of capsules was assessed by determining the amount of tasquinimod and the amount of compounds I, II, III and IV in a sample of the capsules. The selected criterion for approving the batch was that the capsules of the sample contain not more than in total 5% w/w of compounds I-IV relative to the amount of tasquinimod. […] Therefore, according to the selected criterion for approval, the batch of capsules was determined to be suitable for distribution.
as §2

[3] = Drug product stability studies (general observations)
Text: In a drug product, compound I is formed with compound II from hydrolysis of tasquinimod. […] Compound II is further decarboxylated to form compound III.
Compound III is the decarboxylated species formed from the degradation of compound II.
The mechanism for formation of compound IV in a drug product is unknown.

[4] = 0.25 mg capsules of Example 19, 18 months
[5] = 0.25 mg capsules of Example 19, 24 months
[6] = 0.25 mg capsules of Example 19, 36 months
[7] = 0.25 mg capsules of Example 19, 48 months
[8] = 0.5 mg capsules of Example 28, 3 months
[9] = 0.5 mg capsules of Example 28, 6 months
[10] = 0.5 mg capsules of Example 28, 9 months
[11] = 0.5 mg capsules of Example 28, 12 months
[12] = 0.5 mg capsules of Example 28, 18 months
[13] = 0.5 mg capsules of Example 28, 24 months
[14] = 0.5 mg capsules of Example 28, 36 months
[15] = 0.5 mg capsules of Example 28, 48 months
[16] = 1.0 mg capsules of Example 29, 3 months
[17] = 1.0 mg capsules of Example 29, 6 months
[18] = 1.0 mg capsules of Example 29, 9 months
[19] = 1.0 mg capsules of Example 29, 12 months
[20] = 1.0 mg capsules of Example 29, 18 months
[21] = 1.0 mg capsules of Example 29, 24 months
[22] = 1.0 mg capsules of Example 29, 36 months
[23] = 1.0 mg capsules of Example 29, 48 months

SMILES: CNc1ccc(C(F)(F)F)cc1 [Compound I, N-methyl-4-(trifluoromethyl)aniline]
- amount of decomposition product (each of compounds I-IV) in capsules, relative to the amount of tasquinimod ([1]; 0.25 mg capsules of Example 19, 3 months): 0.06 % w/w
- amount of decomposition product (each of compounds I-IV) in capsules, relative to the amount of tasquinimod ([1]; 0.25 mg capsules of Example 19, 6 months): 0.08 % w/w
- amount of decomposition product (each of compounds I-IV) in capsules, relative to the amount of tasquinimod ([1]; 0.25 mg capsules of Example 19, 9 months): 0.12 % w/w
- amount of decomposition product (each of compounds I-IV) in capsules, relative to the amount of tasquinimod ([1]; 0.25 mg capsules of Example 19, 12 months): 0.11 % w/w
- amount of decomposition product (each of compounds I-IV) in capsules, relative to the amount of tasquinimod [1, 4]: 0.10 % w/w
- amount of decomposition product (each of compounds I-IV) in capsules, relative to the amount of tasquinimod [1, 5]: 0.13 % w/w
- amount of decomposition product (each of compounds I-IV) in capsules, relative to the amount of tasquinimod [1, 6]: 0.16 % w/w
- amount of decomposition product (each of compounds I-IV) in capsules, relative to the amount of tasquinimod [1, 7]: 0.16 % w/w
- Decomposition products (% w/w), relative to the amount of tasquinimod in capsule [1, 8]: <0.05 % w/w
- Decomposition products (% w/w), relative to the amount of tasquinimod in capsule [1, 9]: 0.05 % w/w
- Decomposition products (% w/w), relative to the amount of tasquinimod in capsule [1, 10]: 0.06 % w/w
- Decomposition products (% w/w), relative to the amount of tasquinimod in capsule [1, 11]: 0.07 % w/w
- Decomposition products (% w/w), relative to the amount of tasquinimod in capsule [1, 12]: 0.06 % w/w
- Decomposition products (% w/w), relative to the amount of tasquinimod in capsule [1, 13]: 0.07 % w/w
- Decomposition products (% w/w), relative to the amount of tasquinimod in capsule [1, 14]: 0.07 % w/w
- Decomposition products (% w/w), relative to the amount of tasquinimod in capsule [1, 15]: 0.08 % w/w
- Decomposition products (% w/w), relative to the amount of tasquinimod in capsule [1, 16]: <0.05 % w/w
- Decomposition products (% w/w), relative to the amount of tasquinimod in capsule [1, 17]: <0.05 % w/w
- Decomposition products (% w/w), relative to the amount of tasquinimod in capsule [1, 18]: <0.05 % w/w
- Decomposition products (% w/w), relative to the amount of tasquinimod in capsule [1, 19]: <0.05 % w/w
- Decomposition products (% w/w), relative to the amount of tasquinimod in capsule [1, 20]: <0.05 % w/w
- Decomposition products (% w/w), relative to the amount of tasquinimod in capsule [1, 21]: <0.05 % w/w
- Decomposition products (% w/w), relative to the amount of tasquinimod in capsule [1, 22]: <0.05 % w/w
- Decomposition products (% w/w), relative to the amount of tasquinimod in capsule [1, 23]: <0.05 % w/w
- Decomposition products (% w/w), relative to the amount of tasquinimod in capsule ([2]; 0.5 mg capsules of Example 28): <0.05 % w/w
- Decomposition products (% w/w), relative to the amount of tasquinimod in capsule ([2]; 1.0 mg capsules of Example 29): <0.05 % w/w
- change of the amount of the compound in tasquinimod drug product on storage [3]: increase under any storage conditions

SMILES: COc1cccc2c1c(O)c(C(=O)O)c(=O)n2C [Compound II, 4-hydroxy-5-methoxy-1-methyl-2-oxo-1,2-dihydroquinoline-3-carboxylic acid]
- amount of decomposition product (each of compounds I-IV) in capsules, relative to the amount of tasquinimod [1, 4]: 0.05 % w/w
- amount of decomposition product (each of compounds I-IV) in capsules, relative to the amount of tasquinimod [1, 5]: 0.05 % w/w
- amount of decomposition product (each of compounds I-IV) in capsules, relative to the amount of tasquinimod [1, 6]: 0.06 % w/w
- amount of decomposition product (each of compounds I-IV) in capsules, relative to the amount of tasquinimod [1, 7]: 0.06 % w/w
- Decomposition products (% w/w), relative to the amount of tasquinimod in capsule [1, 8]: <0.05 % w/w
- Decomposition products (% w/w), relative to the amount of tasquinimod in capsule [1, 9]: <0.05 % w/w
- Decomposition products (% w/w), relative to the amount of tasquinimod in capsule [1, 10]: <0.05 % w/w
- Decomposition products (% w/w), relative to the amount of tasquinimod in capsule [1, 11]: <0.05 % w/w
- Decomposition products (% w/w), relative to the amount of tasquinimod in capsule [1, 12]: <0.05 % w/w
- Decomposition products (% w/w), relative to the amount of tasquinimod in capsule [1, 13]: <0.05 % w/w
- Decomposition products (% w/w), relative to the amount of tasquinimod in capsule [1, 14]: <0.05 % w/w
- Decomposition products (% w/w), relative to the amount of tasquinimod in capsule [1, 15]: <0.05 % w/w
- Decomposition products (% w/w), relative to the amount of tasquinimod in capsule [1, 16]: <0.05 % w/w
- Decomposition products (% w/w), relative to the amount of tasquinimod in capsule [1, 17]: <0.05 % w/w
- Decomposition products (% w/w), relative to the amount of tasquinimod in capsule [1, 18]: 0.06 % w/w
- Decomposition products (% w/w), relative to the amount of tasquinimod in capsule [1, 19]: 0.06 % w/w
- Decomposition products (% w/w), relative to the amount of tasquinimod in capsule [1, 20]: 0.06 % w/w
- Decomposition products (% w/w), relative to the amount of tasquinimod in capsule [1, 21]: 0.06 % w/w
- Decomposition products (% w/w), relative to the amount of tasquinimod in capsule [1, 22]: 0.07 % w/w
- Decomposition products (% w/w), relative to the amount of tasquinimod in capsule [1, 23]: 0.08 % w/w
- Decomposition products (% w/w), relative to the amount of tasquinimod in capsule ([2]; 0.5 mg capsules of Example 28): <0.05 % w/w
- Decomposition products (% w/w), relative to the amount of tasquinimod in capsule ([2]; 1.0 mg capsules of Example 29): <0.05 % w/w
- change of the amount of the compound in tasquinimod drug product on storage [3]: slight increase
